From US11466006B2, “Dual selective PI3 delta and gamma kinase inhibitors” (Rhizen Pharmaceuticals SA, priority 2013, dated 2022)

Target: T1, Pi3K β (Homo sapiens, UniProt P42338)
T1 construct: purchased Millipore (assay kit)
Experiment: Fluorescent (HTRF) determination of PI3 kinase enzyme activity, beta isoform
Format: biochemical
Settings: Table 1, HTRF
Source text: Phosphoinositide 3 kinases (PI3K) belong to a class of lipid kinases that play a critical role in the regulation of several key cellular processes. The PI3K are capable of phosphorylating the 3-hydroxy position of phosphoinositols thereby generating second messengers involved in downstream signalling events. The homogenous time resolved fluorescence (HTRF) assay allows detection of 3,4,5-triphosphate (PIP3) formed as a result of phosphorylation of phosphotidylinositol 4,5-biphosphate (PIP2) by PI3K isoforms such as α, β, γ or δ.
PI3K isoform activity for α, β, γ or δ was determined using a PI3K human HTRF™ Assay Kit (Millipore, Billerica, Mass.) with modifications. All incubations were carried out at room temperature. Briefly, 0.5 μl of 40× inhibitor (in 100% DMSO) or 100% DMSO were added to each well of a 384-well white plate (Greiner Bio-One, Monroe, N.C.) containing 14.5 μl 1× reaction buffer /PIP2 (10 mM MgCl2, 5 mM DTT, 1.38 μM PIP2) mix with or without enzyme, followed by 5 μl/well of 400 μM ATP and incubated for an additional 30 minutes. Reaction was terminated by adding 5 μl/well stop solution (Millipore, Billerica, Mass.). […] HRTF ratio was measured on a microplate reader (BMG Labtech., Germany) at an excitation wavelength of 337 nm and emission wavelengths of 665 and 615 nm with an integration time of 400 msec counting delay of 50 msec.

T1 sequence (P42338 whole entry): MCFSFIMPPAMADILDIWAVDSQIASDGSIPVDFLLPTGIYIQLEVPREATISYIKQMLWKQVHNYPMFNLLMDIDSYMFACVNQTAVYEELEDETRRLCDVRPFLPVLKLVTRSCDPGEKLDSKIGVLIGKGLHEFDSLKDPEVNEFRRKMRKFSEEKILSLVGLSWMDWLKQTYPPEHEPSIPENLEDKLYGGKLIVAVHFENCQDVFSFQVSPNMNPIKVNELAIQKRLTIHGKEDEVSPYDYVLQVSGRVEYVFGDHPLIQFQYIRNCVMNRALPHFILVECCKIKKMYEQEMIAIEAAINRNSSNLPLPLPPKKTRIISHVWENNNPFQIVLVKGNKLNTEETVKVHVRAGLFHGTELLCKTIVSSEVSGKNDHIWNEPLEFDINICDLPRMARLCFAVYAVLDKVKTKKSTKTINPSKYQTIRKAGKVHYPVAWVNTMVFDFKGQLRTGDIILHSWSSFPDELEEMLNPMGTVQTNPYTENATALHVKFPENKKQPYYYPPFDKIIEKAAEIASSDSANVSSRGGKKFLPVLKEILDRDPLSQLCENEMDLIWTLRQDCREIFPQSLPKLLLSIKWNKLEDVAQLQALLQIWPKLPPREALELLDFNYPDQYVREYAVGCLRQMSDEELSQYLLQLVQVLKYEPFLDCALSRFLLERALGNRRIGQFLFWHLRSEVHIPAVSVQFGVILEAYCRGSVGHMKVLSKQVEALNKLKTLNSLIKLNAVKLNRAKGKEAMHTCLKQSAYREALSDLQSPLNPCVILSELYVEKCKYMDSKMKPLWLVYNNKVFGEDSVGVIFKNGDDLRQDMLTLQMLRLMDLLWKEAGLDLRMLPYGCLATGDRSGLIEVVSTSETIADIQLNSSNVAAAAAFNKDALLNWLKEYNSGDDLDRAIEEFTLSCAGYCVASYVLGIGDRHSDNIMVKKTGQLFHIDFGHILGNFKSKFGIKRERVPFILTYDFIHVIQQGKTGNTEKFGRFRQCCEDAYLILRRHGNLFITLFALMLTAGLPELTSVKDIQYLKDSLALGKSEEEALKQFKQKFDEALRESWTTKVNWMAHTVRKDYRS
T1 sequence (P27986 whole entry partner): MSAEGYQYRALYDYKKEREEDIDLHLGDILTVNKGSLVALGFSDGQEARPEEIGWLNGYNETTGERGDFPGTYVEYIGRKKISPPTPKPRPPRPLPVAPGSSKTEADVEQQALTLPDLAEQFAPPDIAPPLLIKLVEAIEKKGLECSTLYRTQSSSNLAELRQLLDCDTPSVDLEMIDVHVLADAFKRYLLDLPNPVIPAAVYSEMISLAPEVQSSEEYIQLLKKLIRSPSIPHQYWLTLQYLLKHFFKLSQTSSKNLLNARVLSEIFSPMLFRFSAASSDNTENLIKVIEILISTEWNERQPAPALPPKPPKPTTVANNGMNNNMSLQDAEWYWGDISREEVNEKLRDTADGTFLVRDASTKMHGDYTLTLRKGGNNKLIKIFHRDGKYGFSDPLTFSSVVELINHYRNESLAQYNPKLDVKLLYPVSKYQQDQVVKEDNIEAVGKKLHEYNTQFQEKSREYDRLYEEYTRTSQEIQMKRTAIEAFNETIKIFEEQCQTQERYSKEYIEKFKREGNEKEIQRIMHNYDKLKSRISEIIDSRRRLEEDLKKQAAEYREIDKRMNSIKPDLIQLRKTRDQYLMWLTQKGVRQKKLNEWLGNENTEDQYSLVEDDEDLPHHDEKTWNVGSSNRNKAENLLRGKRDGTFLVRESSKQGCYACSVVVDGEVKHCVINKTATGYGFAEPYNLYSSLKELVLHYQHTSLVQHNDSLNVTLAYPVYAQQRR

IC50: > 4000 nM
Compound: CC[C@H](Nc1ncnc2[nH]cnc12)c1oc2ccccc2c(=O)c1-c1cccc(F)c1 [Compound A1, (S)-2-(1-(9H-purin-6-ylamino)propyl)-3-(3-fluorophenyl)-4H-chromen-4-one]
